Test results taken from US7297551B2, “Recombinant proteins and peptides for endotoxin biosensors, endotoxin removal, and anti-microbial and anti-endotoxin therapeutics” (priority 1998, dated 2007).
Marks after values point to notes of the source that are not given here. Ends that are not written are not given here. Peptide text beside a SMILES is read from it.

What was measured:
P. aeruginosa = assay: Microbicidal concentration (MBC) assay; assay type: cell-based, Pseudomonas aeruginosa; details: MBC
Method: Test strains cultured on Mueller-Hinton agar (MHA, Becton Dickinson, USA) were inoculated into 10 ml Mueller-Hinton broth (MHB, Becton Dickinson, USA) and grown overnight at 37° C. in a shaker incubator (Model 4536, Forma Scientific, Inc., USA) at 230 rpm. Overnight broth cultures were diluted to give a final cell density of 10^5 colony forming units/ml (cfu/ml). One hundred microliters of the bacterial suspension was dispensed into sterile polypropylene 8-strip PCR-tubes (Quality Scientific Plastics, USA). Eleven microliters of serially diluted sushi peptides, ranging in final concentrations of 0.03-4 μg/ml, were then added. The peptides were constituted at 10 times the required test concentrations in 0.01% acetic acid and 0.2% bovine serum albumin (BSA). Positive controls were cultures without test peptides. Uninoculated MHB was used as negative control. All tests were carried out in triplicate.
Cultures were incubated at 37° C. for 18-24 h, with the PCR-tubes held in horizontal position and shaken at 230 rpm. Cell counts were determined by standard drop-count method. The killing efficiency for the four sushi peptides were calculated based on standard drop-count method.

[1] = Protection of galactosamine-sensitized mice from LPS-induced lethality; assay type: in vivo, C57BL/6J mice; details: 75 μg peptide, 2 ng LPS pre-incubated with peptide 30 minutes
Method: The anti-endotoxin potency of SSCrFCES was investigated in C57BL/6J mice. Mice are typically resistant to endotoxin. However, the sensitivity of mice to endotoxin can be enhanced >1,000-fold by co-injection with a liver-specific inhibitor, galactosamine (31). […] […] Lethality was observed over 3 days after injection. Statistical analysis were performed using the Kaplan-Meier test (32) and log rank pairwise test.

P. aeruginosa ATCC 27853 = assay: Killing rate assay; assay type: cell-based, Pseudomonas aeruginosa; details: peptides at 0.06 μg/ml, initial 10^9 cfu/ml
Source text: The killing rate assay was adapted from the MBC test above, with different contact time of peptides with the bacteria arrested at regular intervals and plated for colony count. An initial density of 10^9 cfu/ml was used. […] This is one of the important features of an effective therapeutic agent.

THP-1 monocytes = test system: THP-1 monocytes
Method: Two×10^4 THP-1 monocytes in 50 μl of RPMI 1640 were mixed in a microtitre plate with 50 μl of increasing amount of 2-fold serial dilutions of SSCrFCES (0.004-4.0 mg/ml in PBS) and incubated for 60 min at 37° C. To determine cytotoxicity induced by the SSCrFCES, 20 μl of CellTiter96™ AQueous One Solution Reagent (Promega) was added into each well for 90 min at 37° C. [3-(4,5-dimethylthiazol-2-yl)-5-(3-carboxymethoxyphenyl)-2-(4-sulfophenyl)-2H-tetrazolium (MTS) is bioreduced by metabolically active cells into a colored formazan product that is soluble in tissue culture medium (27, 28). For detection, the absorbance was measured at 490 nm. To determine the ratio of cell lysis induced by SSCrFCES, two controls were used. Complete lysis (100%) was achieved by incubating cells in phosphate buffer saline containing 0.2% Tween-20 instead of medium only. This absorbance value corresponded to the background, as those cells could not metabolize MTS. The second control representing 0% lysis was determined by incubating cells in medium only. […] The experiment was done in triplicate.

Human erythrocytes = assay: Hemolysis assay, human erythrocytes; assay type: cell-based; details: 100 μg/ml
Method: Human and rabbit erythrocytes were both used to test the hemolytic activities of the peptides. Whole blood was collected in heparinized sterile syringe, transferred to sterile borosilicate tube and centrifuged at 1200 g for 5 minutes at 4° C. The supernatant including the leukocytes above the erythrocyte pellet was discarded. The erythrocytes were washed 3 times using three volumes of prechilled pyrogen-free saline (PFS). An erythrocyte suspension at 0.4% was prepared for the hemolysis assay. Serial two-fold dilutions of the peptides was prepared in PFS and 100 μl aliquots were added to equal volumes of 0.4% erythrocyte solution in a 96-well microtiter plate (Nunclon™ Δ surface, Nunc) to give final peptide concentrations ranging from 6 to 100 μg/ml. The mixtures were incubated at 37° C. for 1 h. The intact erythrocytes were then pelleted by centrifuging at 1000 g for 5 min. One hundred μl of the supernatant was transferred to a new 96-well microtiter plate and the amount of hemoglobin released into the supernatant was determined by reading the absorbance at 414 nm using a SPECTRAmax™ 340 plate reader with SOFTmax PRO™ version 1.2.0. A positive control with 100 μl of 0.4% erythrocyte lysed in 1% Triton-X 100 was taken as 100% lysis. The negative control was the erythrocytes in PFS alone, which gave minimal lysis. This was taken as 0%.

Escherichia coli = details: time-kill kinetics tested on Escherichia coli; cited from earlier work
[2] = Modified Western blot LPS-binding assay of rFC; parameters: species or system E. coli; details: 300 μg protein per LPS/lipid A strip
Method: LPS from E. coli 055:B5 (Sigma) was reconstituted to 2 μg/μl, and diphosphoryl lipid A from E. coli K12, D31m4 LPS (List Biologicals, Inc., USA) was made up to 1 μg/μl. The LPS-binding assay was based on modifications of earlier described protocols (45,61). Briefly, 10 μg aliquots of LPS/lipid A were electrophoresed on a denaturing 15% SDS-polyacrylamide gel and electroblotted onto Immobilon™ PVDF membrane. The membrane was cut into strips and each LPS/lipid A strip was subsequently incubated with 300 μg of proteins containing rFC. Detection of rFC binding to lipid A was accomplished by incubation with anti-Factor C antibody followed by alkaline phosphatase-conjugated secondary goat anti-rabbit antibody (Dako) and BCIP/NBT colorimetric substrate (Moss, Inc., USA).

[3] = Competition between rFC and CAL Factor C for LPS (fluorimetric assay); assay type: biochemical; details: Biomax-50 enriched, 100 μg
Method: Carcinoscorpius amoebocyte lysate (CAL) containing native Factor C was used in an assay in which rFC competed with CAL Factor C for LPS. Because the rFC produced in P. pastoris lacks serine protease activity, the competition can be monitored by measuring the reduced enzymatic activity of CAL in a fluorimetric assay. Mixtures of 100 μl each of increasing concentrations of LPS or rFC, in fluorimetric assay buffer (50 mM Tris HCl pH 8, containing 0.1 M NaCl and 0.01 M CaCl2) were incubated at 37° C. for 1 h. Aliquots of 20 μg CAL were added to each mixture and the total volumes were made up to 2 ml with fluorimetric assay buffer. The reaction was continued at 37° C. for 1 h and the fluorimetric assay protocol (64) was followed. This involved the addition of 15 μl of 2 mM fluorimetric substrate N-t-Boc-Val-Pro-Arg-7-amido-4-methylcoumarin (Sigma) and incubation at 37° C. for 30 min. The reaction was terminated by the addition of 0.1 ml of glacial acetic acid (Merck). The product, amino methylcoumarin, was measured in fluorescence units (FU) on a Luminescence Spectrometer LS-5 (Perkin-Elmer) with excitation light at 380 nm and emission at 460 nm.
The percentage competition by rFC of the native Factor C enzyme activity of CAL was calculated based on comparison of enzyme activity with the negative control of pHILD2/151. […]
[formula] where FU represents fluorescence units.

[4] = test system: Escherichia coli ATCC#25922; assay: Bacteriostatic activity in in vitro culture, E. coli; assay type: cell-based; details: within 2 h of incubation
Method: (§1) The bacteria used for the assay were Escherichia coli ATCC#25922, Salmonella typhimurium ATCC#14028, Pseudomonas aeruginosa ATCC#27853, Klebsiella pneumoniae ATCC#13883 and […]. A colony of each Gram-negative bacterium was inoculated into nutrient broth (Gibco, BRL) and grown at 37° C. until it reached the logarithmic phase of growth. The culture was diluted with nutrient broth to give 1-5×10^5 cells/ml. Aliquots of 2 ml culture were incubated with 1 mg rFC/ml of culture. Incubation was carried out at 37° C. At time intervals of 0, 2, 4, 6, and 24 h, the bacterial culture was vortexed to break up any agglutinated clumps. After vortexing, each culture was examined under the microscope to ensure homogeneity of bacteria. The culture was serially diluted with 0.85% saline, plated on nutrient agar (Oxoid) and incubated overnight at 37° C. for colony counting.

[5] = test system: the various bacteria used; assay: Bacteriostatic activity in in vitro cultures, the various bacteria used; assay type: cell-based; details: crude full-length rFC; Sephadex G-100 enriched truncates
Method: as §1

Molecule	Cytotoxicity (Cell lysis) BC50 (THP-1 monocytes) [µM]	Haemolytic Activity at 100 μg/ml peptide (hu RBC) % lysis (Human erythrocytes) [%]	further results
CC[C@H](C)[C@H](NC(=O)[C@H](CCCNC(=N)N)NC(=O)[C@H](C)NC(=O)[C@H](CCSC)NC(=O)CNC(=O)[C@H](CCCCN)NC(=O)[C@H](CC(C)C)NC(=O)[C@H](CCCCN)NC(=O)[C@H](Cc1ccccc1)NC(=O)CN)C(=O)N[C@@H](CO)C(=O)N[C@@H](CS)C(=O)N[C@@H](CC(C)C)C(=O)N1CCC[C@H]1C(=O)N[C@@H](CC(N)=O)C(=O)NCC(=O)N[C@@H](CCC(N)=O)C(=O)N[C@@H](Cc1c[nH]c2ccccc12)C(=O)N[C@@H](CO)C(=O)N[C@@H](CC(N)=O)C(=O)N[C@@H](Cc1ccccc1)C(=O)N1CCC[C@H]1C(=O)N1CCC[C@H]1C(=O)N[C@@H](CCCCN)C(=O)N[C@@H](CS)C(=O)N[C@H](C(=O)N[C@@H](CCCNC(=N)N)C(=O)N[C@@H](CCC(=O)O)C(=O)N[C@@H](CS)C(=O)N[C@@H](C)C(=O)N[C@@H](CCSC)C(=O)N[C@H](C(=O)N[C@@H](CO)C(=O)N[C@@H](CO)C(=O)O)C(C)C)[C@@H](C)CC [S1] (H-GFKLKGMARISCLPNGQWSNFPPKCIRECAMVSS-OH; N-terminus and C-terminus assumed)	–	–	Anti-microbial Potency P. aeruginosa MBC90 (P. aeruginosa): 0.03 µg/mL; Mouse Protection Assay [1]: 22% at 75; Killing rate (time to achieve MBC90) (P. aeruginosa ATCC 27853): 7 min
GVSTTVLNIYRGIINLLQLNVKK [S8-vg3]	22	100	–
HAEHKVKIGVEQKYGQFPQGTEVTYTCSGNYFLM [S3]	–	5	–
HKVKKIVKQLYRAEHKVKKIVKQL [S5]	33	0	–
IYRGIINLIQLAVKKAQNVYQM [S9-vg4]	35	75	–
LLNAVPHKATHAALKFLKEK [S7-vg2]	400	5	–
MRKLVLALAKALAKVDKKNL [S6-vg1]	26	5	–
Magainin II	–	–	Killing rate (Escherichia coli): 60^d min
Nisin	–	–	Killing rate (Escherichia coli): 60^d min
RAEHKVKKIVKQLYGQFRQLTRVTRTCSRFLRRM [S4]	3.8	20	–
Ranalexin	–	–	Killing rate (Escherichia coli): >60^d min
rFCEE: truncated recombinant Factor C from pHILD2/CrFC21EE, amino acids 1-766, 90 kDa, with endotoxin-binding domain (protein, listed as Carcinoscorpius rotundicauda) MVLASFLVSGLVLGLLAQKMRPVQSKGVDLGLCDETRFECKCGDPGYVFNIPVKQCTYFYRWRPYCKPCDDLEAKDICPKYKRCQECKAGLDSCVTCPPNKYGTWCSGECQCKNGGICDQRTGACACRDRYEGVHCEILKGCPLLPSDSQVQEVRNPPDNPQTIDYSCSPGFKLKGMARISCLPNGQWSNFPPKCIRECAMVSSPEHGKVNALSGDMIEGATLRFSCDSPYYLIGQETLTCQGNGQWNGQIPQCKNLVFCPDLDPVNHAEHKVKIGVEQKYGQFPQGTEVTYTCSGNYFLMGFDTLKCNPDGSWSGSQPSCVKVADREVDCDSKAVDFLDDVGEPVRIHCPAGCSLTAGTVWGTAIYHELSSVCRAAIHAGKLPNSGGAVHVVNNGPYSDFLGSDLNGIKSEELKSLARSFRFDYVRSSTAGKSGCPDGWFEVDENCVYVTSKQRAWERAQGVCTNMAARLAVLDKDVIPNSLTETLRGKGLTTTWIGLHRLDAEKPFIWELMDRSNVVLNDNLTFWASGEPGNETNCVYMDIQDQLQSVWKTKSCFQPSSFACMMDLSDRNKAKCDDPGSLENGHATLHGQSIDGFYAGSSIRYSCEVLHYLSGTETVTCTTNGTWSAPKPRCIKVITCQNPPVPSYGSVEIKPPSRTNSISRVGSPFLRLPRLPLPLARAAKPPPKPRSSQPSTVDLASKVKLPEGHYRVGSRAIYTCESRYYELLGSQGRRCDSNGNWSGRPASCIPVCGRSDSPRSPFIWNG	–	–	binding to 7-20 kDa lipid A bands [2]: able to bind specifically to lipid A moiety of LPS, albeit less strongly; effect on the enzymatic activity of CAL Factor C [3]: markedly lower competitive effect; agglutination of E. coli [4]: Agglutination; inhibitory effect on growth of the various bacteria [5]: did not have any inhibitory effect
